Experimental data reported in patent publication US20220202905A1, “COMPOSITION FOR PREVENTING OR TREATING NEUROTROPHIC KERATITIS WHICH CONTAINS PACAP PEPTIDE OR STABILIZED PACAP PEPTIDE” (SENJU PHARMACEUTICAL CO., LTD., priority 2019, published 2022).
Square brackets hold non-standard residues; d marks the D form. Peptide text beside a SMILES is read from it. Ala(1H-tetrazol-5-yl) = N[C@@H](Cc1nnn[nH]1)C(=O)O; Nle = CCCC[C@H](N)C(=O)O

Experiment: Peptide stability test, Tris buffer (pH 7.0), 60° C. storage, HPLC remaining rate
Assay type: physicochemical
Conditions: for remaining rate after correction for water, 60° C., 1 week preservation / remaining rate after correction for water, 60° C., 2 weeks preservation: 100 μM in Tris buffer pH 7.0
Procedure: Peptides 1, 2 and 6 to 9 synthesized in Example 2 were weighed and dissolved in Tris buffer (pH 7.0) to prepare 1.0 mM peptide solutions. Each solution was filtered with a Chromatdisk (product of Merck Millipore, Millex-GV, 0.22 μm). The filtrate was diluted to 100 μM with Tris buffer (pH 7.0) and dispensed into a tube (Protein LoBind Tube by Eppendorf Co.). The prepared peptide solutions were incubated for 1 week or 2 weeks in a 60° C. thermostatic bath to obtain stored samples. A simultaneously prepared sample among the peptide solutions that was not stored was used as a standard sample (initial sample). The standard sample and the stored samples were stored at −30° C. until sample analysis. Each stored sample was measured under the following HPLC analysis conditions 2, and the remaining rate after correction for water for each peptide among the stored samples was calculated in the same manner as Example 3. Guard column: XSelect CSH C18 by Waters Co., 5 μm, 4.6×20 mm Guard Cartridge Detection wavelength: 220 nm Mobile phase A: 0.1% formic acid aqueous solution Mobile phase B: 0.1% acetonitrile formate solution Measuring time: 20 minutes Measuring sample injection rate: 50 μL Flow rate: 1.0 mL/min Column temperature: 40° C. Sample cooler: 25° C. Mobile phase delivery: The mixing ratio of mobile phase A and mobile phase B was varied as shown in Table 5 for linear concentration gradient control. Peptides 12 to 25, 27 and 28 synthesized in Example 2 were weighed and dissolved in Tris buffer (pH 7.0) to prepare 1.0 mM peptide solutions. Each solution was filtered with a Chromatdisk (product of Merck Millipore, Millex-GV, 0.22 μm). The filtrate was diluted to 100 μM with Tris buffer (pH 7.0) and dispensed into a tube (Protein LoBind Tube by Eppendorf Co.). The prepared peptide solutions were incubated for one week or 2 weeks in a 60° C. thermostatic bath to obtain stored samples. A simultaneously prepared sample among the peptide solutions that was not stored was used as a standard sample (initial sample). The standard sample and the stored samples were stored at −30° C. until sample analysis. The remaining rate after correction for water for each peptide among the stored samples was calculated in the same manner as Example 4, and the results are shown in Table 7. Peptides 29 to 34 synthesized in Example 2 were weighed and dissolved in Tris buffer (pH 7.0) to prepare 1.0 mM peptide solutions. Each solution was filtered with a Chromatdisk (product of Merck Millipore, Millex-GV, 0.22 μm). The filtrate was diluted to 100 μM with Tris buffer (pH 7.0) and dispensed into a tube (Protein LoBind Tube by Eppendorf Co.). The prepared peptide solutions were incubated for 2 weeks in a 60° C. thermostatic bath to obtain stored samples. A simultaneously prepared sample among the peptide solutions that was not stored was used as a standard sample (initial sample). The standard sample and the stored samples were stored at −30° C. until sample analysis. The remaining rate after correction for water for each peptide among the stored samples was calculated in the same manner as Example 4, and the results are shown in Table 7-2. Peptide 26 synthesized in Example 2 was weighed and dissolved in Tris buffer (pH 7.0) to prepare a 1.0 mM peptide solution. The solution was filtered with a Chromatdisk (product of Merck Millipore, Millex-GV, 0.22 μm). The filtrate was diluted to 100 μM with Tris buffer (pH 7.0) and dispensed into a tube (Protein LoBind Tube by Eppendorf Co.). The prepared peptide solution was incubated for one week or 2 weeks in a 60° C. thermostatic bath to obtain stored samples. A simultaneously prepared sample among the peptide solutions that was not stored was used as a standard sample (initial sample). The standard sample and the stored sample were stored at −30° C. until sample analysis. […]

remaining rate after correction for water, 60° C., 1 week preservation (Table 6, HPLC conditions 2)	remaining rate after correction for water, 60° C., 2 weeks preservation (Table 6, HPLC conditions 2)	expected remaining rate for 2 years at room temperature (buffer, 336 h)	remaining rate after correction for water, 60° C., 1 week preservation (Table 7)	remaining rate after correction for water, 60° C., 2 weeks preservation (Table 7)	SMILES
91.7%	84.8%	–	–	–	CC[C@H](C)[C@H](NC(=O)CNC(=O)[C@H](Cc1nnn[nH]1)NC(=O)[C@H](CO)NC(=O)[C@@H](N)Cc1c[nH]cn1)C(=O)N[C@@H](Cc1ccccc1)C(=O)N[C@H](C(=O)N[C@@H](Cc1nnn[nH]1)C(=O)N[C@@H](CO)C(=O)N[C@@H](Cc1ccc(O)cc1)C(=O)N[C@@H](CO)C(=O)N[C@@H](CCCNC(=N)N)C(=O)N[C@@H](Cc1ccc(O)cc1)C(=O)N[C@@H](CCCNC(=N)N)C(=O)N[C@@H](CCCCN)C(=O)N[C@@H](CCC(N)=O)C(=O)N[C@@H](CC(C)C)C(=O)N[C@@H](C)C(=O)N[C@H](C(=O)N[C@@H](CCCCN)C(=O)N[C@@H](CCCCN)C(=O)N[C@@H](Cc1ccc(O)cc1)C(=O)N[C@@H](CC(C)C)C(=O)N[C@@H](C)C(=O)N[C@@H](C)C(=O)N[C@H](C(=O)N[C@@H](CC(C)C)C(N)=O)C(C)C)C(C)C)[C@@H](C)O [Peptide 7] (H-HS[Ala(1H-tetrazol-5-yl)]GIFT[Ala(1H-tetrazol-5-yl)]SYSRYRKQLAVKKYLAAVL-NH2)
–	–	≥ 90%	–	–	CCCC[C@H](NC(=O)[C@H](CCC(N)=O)NC(=O)[C@H](CCCCN)NC(=O)[C@H](CCCNC(=N)N)NC(=O)[C@H](Cc1ccc(O)cc1)NC(=O)[C@H](CCCNC(=N)N)NC(=O)[C@H](CO)NC(=O)[C@H](Cc1ccc(O)cc1)NC(=O)[C@H](CO)NC(=O)[C@H](Cc1nnn[nH]1)NC(=O)[C@@H](NC(=O)[C@H](Cc1ccccc1)NC(=O)[C@@H](NC(=O)CNC(=O)[C@H](Cc1nnn[nH]1)NC(=O)[C@H](CO)NC(=O)[C@H](Cc1c[nH]cn1)NC(C)=O)[C@@H](C)CC)[C@@H](C)O)C(=O)N[C@@H](C)C(=O)N[C@H](C(=O)N[C@@H](CCCCN)C(=O)N[C@@H](CCCCN)C(=O)N[C@@H](Cc1ccc(O)cc1)C(=O)N[C@@H](CC(C)C)C(=O)N[C@@H](C)C(=O)N[C@@H](C)C(=O)N[C@H](C(=O)N[C@@H](CC(C)C)C(N)=O)C(C)C)C(C)C [Peptide 8] (Ac-HS[Ala(1H-tetrazol-5-yl)]GIFT[Ala(1H-tetrazol-5-yl)]SYSRYRKQ[Nle]AVKKYLAAVL-NH2)
–	–	–	96.7%	94.5%	CC[C@H](C)[C@H](NC(=O)CNC(=O)[C@H](Cc1nnn[nH]1)NC(=O)[C@H](C)NC(=O)[C@H](Cc1c[nH]cn1)NC(C)=O)C(=O)N[C@@H](Cc1ccccc1)C(=O)N[C@H](C(=O)N[C@@H](Cc1nnn[nH]1)C(=O)N[C@@H](CO)C(=O)N[C@@H](Cc1ccc(O)cc1)C(=O)N[C@@H](CO)C(=O)N[C@@H](CCCNC(=N)N)C(=O)N[C@@H](Cc1ccc(O)cc1)C(=O)N[C@@H](CCCNC(=N)N)C(=O)N[C@@H](CCCCN)C(=O)N[C@@H](CCC(N)=O)C(=O)N[C@@H](CC(C)C)C(=O)N[C@@H](C)C(=O)N[C@H](C(=O)N[C@@H](CCCCN)C(=O)N[C@@H](CCCCN)C(=O)N[C@@H](Cc1ccc(O)cc1)C(=O)N[C@@H](CC(C)C)C(=O)N[C@@H](C)C(=O)N[C@@H](C)C(=O)N[C@H](C(=O)N[C@@H](CC(C)C)C(N)=O)C(C)C)C(C)C)[C@@H](C)O [Peptide 14] (Ac-HA[Ala(1H-tetrazol-5-yl)]GIFT[Ala(1H-tetrazol-5-yl)]SYSRYRKQLAVKKYLAAVL-NH2)
–	–	–	98.1%	93.5%	CC[C@H](C)[C@H](NC(=O)CNC(=O)[C@H](Cc1nnn[nH]1)NC(=O)[C@H](CO)NC(=O)[C@H](Cc1c[nH]cn1)NC(C)=O)C(=O)N[C@@H](Cc1ccccc1)C(=O)N[C@H](C(=O)N[C@@H](Cc1nnn[nH]1)C(=O)N[C@@H](CO)C(=O)N[C@@H](Cc1ccc(O)cc1)C(=O)N[C@@H](C)C(=O)N[C@@H](CCCNC(=N)N)C(=O)N[C@@H](Cc1ccc(O)cc1)C(=O)N[C@@H](CCCNC(=N)N)C(=O)N[C@@H](CCCCN)C(=O)N[C@@H](CCC(N)=O)C(=O)N[C@@H](CC(C)C)C(=O)N[C@@H](C)C(=O)N[C@H](C(=O)N[C@@H](CCCCN)C(=O)N[C@@H](CCCCN)C(=O)N[C@@H](Cc1ccc(O)cc1)C(=O)N[C@@H](CC(C)C)C(=O)N[C@@H](C)C(=O)N[C@@H](C)C(=O)N[C@H](C(=O)N[C@@H](CC(C)C)C(N)=O)C(C)C)C(C)C)[C@@H](C)O [Peptide 16] (Ac-HS[Ala(1H-tetrazol-5-yl)]GIFT[Ala(1H-tetrazol-5-yl)]SYARYRKQLAVKKYLAAVL-NH2)
–	–	–	97.8%	93.4%	CC[C@H](C)[C@H](NC(=O)CNC(=O)[C@H](Cc1nnn[nH]1)NC(=O)[C@H](CO)NC(=O)[C@H](Cc1c[nH]cn1)NC(C)=O)C(=O)N[C@@H](Cc1ccccc1)C(=O)N[C@H](C(=O)N[C@@H](Cc1nnn[nH]1)C(=O)N[C@@H](CO)C(=O)N[C@@H](Cc1ccc(O)cc1)C(=O)N[C@@H](CO)C(=O)N[C@@H](CCCNC(=N)N)C(=O)N[C@@H](Cc1ccc(O)cc1)C(=O)N[C@@H](CCCNC(=N)N)C(=O)N[C@@H](CCCCN)C(=O)N[C@@H](C)C(=O)N[C@@H](CC(C)C)C(=O)N[C@@H](C)C(=O)N[C@H](C(=O)N[C@@H](CCCCN)C(=O)N[C@@H](CCCCN)C(=O)N[C@@H](Cc1ccc(O)cc1)C(=O)N[C@@H](CC(C)C)C(=O)N[C@@H](C)C(=O)N[C@@H](C)C(=O)N[C@H](C(=O)N[C@@H](CC(C)C)C(N)=O)C(C)C)C(C)C)[C@@H](C)O [Peptide 17] (Ac-HS[Ala(1H-tetrazol-5-yl)]GIFT[Ala(1H-tetrazol-5-yl)]SYSRYRKALAVKKYLAAVL-NH2)
–	–	–	93.9%	91.8%	CC[C@H](C)[C@H](NC(=O)CNC(=O)[C@H](Cc1nnn[nH]1)NC(=O)[C@H](CO)NC(=O)[C@H](Cc1c[nH]cn1)NC(C)=O)C(=O)N[C@@H](Cc1ccccc1)C(=O)N[C@H](C(=O)N[C@@H](Cc1nnn[nH]1)C(=O)N[C@@H](CO)C(=O)N[C@@H](Cc1ccc(O)cc1)C(=O)N[C@@H](CO)C(=O)N[C@@H](CCCNC(=N)N)C(=O)N[C@@H](Cc1ccc(O)cc1)C(=O)N[C@@H](CCCNC(=N)N)C(=O)N[C@@H](CCCCN)C(=O)N[C@@H](CCC(N)=O)C(=O)N[C@@H](CC(C)C)C(=O)N[C@@H](C)C(=O)N[C@H](C(=O)N[C@@H](CCCCN)C(=O)N[C@@H](CCCCN)C(=O)N[C@@H](Cc1ccc(O)cc1)C(=O)N[C@@H](CC(C)C)C(=O)N[C@@H](C)C(=O)N[C@@H](C)C(=O)N[C@H](C(=O)N[C@@H](C)C(N)=O)C(C)C)C(C)C)[C@@H](C)O [Peptide 20] (Ac-HS[Ala(1H-tetrazol-5-yl)]GIFT[Ala(1H-tetrazol-5-yl)]SYSRYRKQLAVKKYLAAVA-NH2)
–	–	–	97.8%	93.5%	CC[C@H](C)[C@H](NC(=O)CNC(=O)[C@H](Cc1nnn[nH]1)NC(=O)[C@H](CO)NC(=O)[C@H](Cc1c[nH]cn1)NC(C)=O)C(=O)N[C@@H](Cc1ccccc1)C(=O)N[C@H](C(=O)N[C@@H](Cc1nnn[nH]1)C(=O)N[C@@H](CO)C(=O)N[C@@H](Cc1ccc(O)cc1)C(=O)N[C@@H](CO)C(=O)N[C@@H](CCCNC(=N)N)C(=O)N[C@@H](Cc1ccc(O)cc1)C(=O)N[C@@H](CCCNC(=N)N)C(=O)N[C@@H](CCCNC(=N)N)C(=O)N[C@@H](CCC(N)=O)C(=O)N[C@@H](CC(C)C)C(=O)N[C@@H](C)C(=O)N[C@H](C(=O)N[C@@H](CCCNC(=N)N)C(=O)N[C@@H](CCCNC(=N)N)C(=O)N[C@@H](Cc1ccc(O)cc1)C(=O)N[C@@H](CC(C)C)C(=O)N[C@@H](C)C(=O)N[C@@H](C)C(=O)N[C@H](C(=O)N[C@@H](CC(C)C)C(N)=O)C(C)C)C(C)C)[C@@H](C)O [Peptide 21] (Ac-HS[Ala(1H-tetrazol-5-yl)]GIFT[Ala(1H-tetrazol-5-yl)]SYSRYRRQLAVRRYLAAVL-NH2)
